Measurements published in PubChem BioAssay AID328 (DTP/NCI, 2004).
Where “and” joins values, the source holds several entries; their conditions need not be identical. Equal entries are not always repeated. Toxic doses and inconclusive results are not listed. Starred links: 1 amine or outer side, 2 acyl side, 3 side chain; linkers in the order of their positions; H or OH if unused. Positions of bridges follow the written chain, without caps; N, C: chain ends. Non-standard residues stand in square brackets, D forms with d. Residues, ends and D or L forms follow the SMILES beside them. Chains are numbered I, II in the order given. ξ: configuration not given here. Actinocin(9to1) = Cc1c2oc3c(C)ccc(C(=O)[*:1])c3nc-2c(C(=O)[*:2])c(N)c1=O; ξPro(4ξ-Me) = CC1CNC(C(=O)O)C1; NMeV = CN[CH](C(=O)O)C(C)C; Sar = CNCC(=O)O

Test system: BDF1 mice, P388 leukemia ip, median survival T/C
Assay: NCI In Vivo Anticancer Drug Screen. Data for tumor model P388 Leukemia (intraperitoneal) in B6D2F1 (BDF1) mice
Details: endpoint: median survival time, higher = longer survival
Outline: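 Transplantable tumour in mice; compound vs vehicle dosing; survival scored; ratio of treated to control reported.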

[1] = dose: 25.0 mg/kg/injection, schedule: Q04DX003 (ip), vehicle: saline
[2] = dose: 100.0 mg/kg/injection, schedule: Q04DX003 (ip), vehicle: saline
[3] = dose: 200.0 mg/kg/injection, schedule: Q04DX003 (ip), vehicle: saline
[4] = dose: 400.0 mg/kg/injection, schedule: Q04DX003 (ip), vehicle: saline
[5] = dose: 100.0 mg/kg/injection, schedule: Q04DX003 (ip), vehicle: saline with Tween-80
[6] = dose: 200.0 mg/kg/injection, schedule: Q04DX003 (ip), vehicle: saline with Tween-80
[7] = dose: 100.0 mg/kg/injection, schedule: Q01DX009 (ip), vehicle: saline
[8] = dose: 200.0 mg/kg/injection, schedule: Q01DX009 (ip), vehicle: saline
[9] = dose: 400.0 mg/kg/injection, schedule: Q04DX003 (ip), vehicle: saline with Tween-80
[10] = dose: 50.0 mg/kg/injection, schedule: Q01DX009 (ip), vehicle: saline
[11] = dose: 100.0 mg/kg/injection, schedule: Q04DX003 (ip), vehicle: other
[12] = dose: 12.5 mg/kg/injection, schedule: Q04DX003 (ip), vehicle: saline
[13] = dose: 50.0 mg/kg/injection, schedule: Q04DX003 (ip), vehicle: saline

Question: `Cc1c2oc3c(C)ccc(C(=O)NC4C(=O)NC(C(C)C)C(=O)N5CC(C)CC5C(=O)N(C)CC(=O)N(C)C(C(C)C)C(=O)OC4C)c3nc-2c(C(=O)NC2C(=O)NC(C(C)C)C(=O)N3CC(C)CC3C(=O)N(C)CC(=O)N(C)C(C(C)C)C(=O)OC2C)c(N)c1=O` (stereo not given) (I: TV[ξPro(4ξ-Me)][Sar][NMeV] / II: TV[ξPro(4ξ-Me)][Sar][NMeV]; ester I:1-I:C, II:1-II:C; linker I:N-II:N via Actinocin(9to1); configuration not given here) was tested. Which T/C (dose: 1.3 mg/kg/injection, schedule: Q01DX009 (ip), vehicle: saline + alcohol) did it give?
Answer: 204 % of control

Question: And the T/C (dose: 2.16 mg/kg/injection, schedule: Q01DX009 (ip), vehicle: saline + alcohol)?
Answer: 228 % of control

Question: What about the T/C (dose: 3.24 mg/kg/injection, schedule: Q04DX003 (ip), vehicle: saline + alcohol) of the same compound?
Answer: 190 % of control and 161 % of control and 193 % of control

Question: What about the T/C (dose: 3.6 mg/kg/injection, schedule: Q01DX009 (ip), vehicle: saline + alcohol) of the same compound?
Answer: 314 % of control

Question: And the T/C (dose: 5.4 mg/kg/injection, schedule: Q04DX003 (ip), vehicle: saline + alcohol)?
Answer: 160 % of control and 219 % of control

Question: And the T/C (dose: 9.0 mg/kg/injection, schedule: Q04DX003 (ip), vehicle: saline + alcohol)?
Answer: 160 % of control and 209 % of control and 99 % of control

Question: And the T/C (dose: 15.0 mg/kg/injection, schedule: Q04DX003 (ip), vehicle: saline + alcohol)?
Answer: 104 % of control and 207 % of control

Question: And the T/C (dose: 288.0 micrograms/kg/injection, schedule: Q01DX009 (ip), vehicle: saline + alcohol)?
Answer: 169 % of control

Question: What about the T/C (dose: 480.0 micrograms/kg/injection, schedule: Q01DX009 (ip), vehicle: saline + alcohol) of the same compound?
Answer: 176 % of control

Question: What about the T/C (dose: 800.0 micrograms/kg/injection, schedule: Q01DX009 (ip), vehicle: saline + alcohol) of the same compound?
Answer: 194 % of control

Question: What about the T/C (dose: 864.0 micrograms/kg/injection, schedule: Q04DX003 (ip), vehicle: saline + alcohol) of the same compound?
Answer: 101 % of control

Question: What about the T/C (dose: 2400.0 micrograms/kg/injection, schedule: Q04DX003 (ip), vehicle: saline + alcohol) of the same compound?
Answer: 167 % of control

Question: What about the T/C (dose: 4000.0 micrograms/kg/injection, schedule: Q04DX003 (ip), vehicle: saline + alcohol) of the same compound?
Answer: 151 % of control and 194 % of control

Question: Which results are given for `Nc1nncs1`?
Answer: T/C (dose: 7.8 mg/kg/injection, schedule: Q01DX010 (ip), vehicle: saline): 118 % of control; T/C (dose: 12.5 mg/kg/injection, schedule: Q01DX010 (ip), vehicle: saline): 100 % of control; T/C (dose: 15.6 mg/kg/injection, schedule: Q01DX010 (ip), vehicle: saline): 154 % of control; T/C (dose: 25.0 mg/kg/injection, schedule: Q01DX010 (ip), vehicle: saline): 163 % of control; T/C [1]: 118 % of control; T/C (dose: 50.0 mg/kg/injection, schedule: Q01DX010 (ip), vehicle: saline): 190 % of control; T/C (dose: 100.0 mg/kg/injection, schedule: Q01DX010 (ip), vehicle: saline): 100 % of control; T/C [2]: 172 % of control; T/C (dose: 108.0 mg/kg/injection, schedule: Q04DX003 (ip), vehicle: saline): 154 % of control; T/C (dose: 173.0 mg/kg/injection, schedule: Q04DX003 (ip), vehicle: other): 179 % of control; T/C (dose: 180.0 mg/kg/injection, schedule: Q04DX003 (ip), vehicle: saline): 208 % of control; T/C [3]: 181 % of control; T/C (dose: 288.0 mg/kg/injection, schedule: Q04DX003 (ip), vehicle: other): 212 % of control

Question: With `O=[N+]([O-])c1ccc(Nc2ccncc2)cc1` as the compound, how does the T/C [2] read?
Answer: 104 % of control

Question: And the T/C [3]?
Answer: 95 % of control

Question: What about the T/C [4] of the same compound?
Answer: 104 % of control

Question: Which T/C [5] does the source give for `CC(Cc1ccccc1)CC(C(=O)O)C(=O)O` (stereo not given) here?
Answer: 100 % of control

Question: What about the T/C [6] of the same compound?
Answer: 99 % of control

Question: Which T/C [7] does the source give for `Cc1ccc(NCCN2CCOCC2)c2c(=O)c3ccccc3sc12` here?
Answer: 90 % of control

Question: What about the T/C [2] of the same compound?
Answer: 110 % of control

Question: What about the T/C [8] of the same compound?
Answer: 109 % of control

Question: What about the T/C [3] of the same compound?
Answer: 110 % of control

Question: What about the T/C (dose: 400.0 mg/kg/injection, schedule: Q01DX009 (ip), vehicle: saline) of the same compound?
Answer: 122 % of control

Question: What about the T/C [4] of the same compound?
Answer: 110 % of control

Question: Which results are given for `CC1CC/C(=N\N(C)C)c2ccccc21` (stereo not given)?
Answer: T/C (dose: 67.0 mg/kg/injection, schedule: Q04DX003 (ip), vehicle: saline with Tween-80): 118 % of control; T/C [5]: 122 % of control; T/C [9]: 120 % of control

Question: With `CCN(CC)CCCC(C)NC(=O)c1cc(=O)[nH]c(=O)[nH]1` (stereo not given) as the compound, how does the T/C (dose: 25.0 mg/kg/injection, schedule: Q01DX009 (ip), vehicle: water) read?
Answer: 103 % of control

Question: And the T/C (dose: 50.0 mg/kg/injection, schedule: Q01DX009 (ip), vehicle: water)?
Answer: 106 % of control

Question: What about the T/C (dose: 100.0 mg/kg/injection, schedule: Q01DX009 (ip), vehicle: water) of the same compound?
Answer: 100 % of control

Question: What about the T/C (dose: 100.0 mg/kg/injection, schedule: Q04DX003 (ip), vehicle: water) of the same compound?
Answer: 100 % of control

Question: What about the T/C (dose: 200.0 mg/kg/injection, schedule: Q04DX003 (ip), vehicle: water) of the same compound?
Answer: 98 % of control

Question: How did the T/C (dose: 25.0 mg/kg/injection, schedule: Q01DX009 (ip), vehicle: saline) turn out when `C/C(=C/c1c(C)[nH]c(=O)[nH]c1=O)C(=O)O` was run?
Answer: 89 % of control

Question: What about the T/C [10] of the same compound?
Answer: 89 % of control

Question: And the T/C [7]?
Answer: 96 % of control

Question: And the T/C [2]?
Answer: 101 % of control

Question: What about the T/C [8] of the same compound?
Answer: 105 % of control

Question: What about the T/C [3] of the same compound?
Answer: 91 % of control

Question: What about the T/C [4] of the same compound?
Answer: 87 % of control

Question: Which T/C (dose: 25.0 mg/kg/injection, schedule: Q01DX009 (ip), vehicle: acetone) does the source give for `C=C(COC(C)(C)C)CN(C)C` here?
Answer: 92 % of control

Question: And the T/C (dose: 50.0 mg/kg/injection, schedule: Q01DX009 (ip), vehicle: acetone)?
Answer: 100 % of control

Question: And the T/C (dose: 100.0 mg/kg/injection, schedule: Q01DX009 (ip), vehicle: acetone)?
Answer: 96 % of control

Question: `NC(=O)Oc1cc(OC(N)=O)cc(N(CCCl)CCCl)c1` was tested. Which T/C (dose: 12.5 mg/kg/injection, schedule: Q01DX009 (ip), vehicle: saline with Tween-80) did it give?
Answer: 158 % of control

Question: And the T/C (dose: 25.0 mg/kg/injection, schedule: Q01DX009 (ip), vehicle: saline with Tween-80)?
Answer: 181 % of control

Question: What about the T/C (dose: 25.0 mg/kg/injection, schedule: Q04DX003 (ip), vehicle: other) of the same compound?
Answer: 179 % of control

Question: And the T/C (dose: 50.0 mg/kg/injection, schedule: Q01DX009 (ip), vehicle: saline with Tween-80)?
Answer: 168 % of control

Question: And the T/C (dose: 50.0 mg/kg/injection, schedule: Q04DX003 (ip), vehicle: other)?
Answer: 186 % of control

Question: What about the T/C [11] of the same compound?
Answer: 216 % of control

Question: How did the T/C (dose: 50.0 mg/kg/injection, schedule: Q04DX003 (ip), vehicle: saline with Tween-80) turn out when `CC(C)CC(Br)C(=O)NCC(=O)NC(Cc1ccccc1)C(=O)O` (stereo not given) was run?
Answer: 95 % of control

Question: And the T/C [5]?
Answer: 100 % of control

Question: What about the T/C [6] of the same compound?
Answer: 95 % of control

Question: How did the T/C [5] turn out when `COC(=O)c1ccc(Cn2ccc(=O)n(Cc3ccc(C(=O)OC)cc3)c2=O)cc1` was run?
Answer: 100 % of control

Question: What about the T/C [6] of the same compound?
Answer: 100 % of control

Question: What about the T/C [9] of the same compound?
Answer: 100 % of control

Question: `Cc1nc[nH]c(=O)c1N` was tested. Which T/C [10] did it give?
Answer: 102 % of control

Question: And the T/C [7]?
Answer: 102 % of control

Question: And the T/C [8]?
Answer: 102 % of control

Question: What does the source list for `CCCCCCCCCCCCNC(=O)OCCN(CCOC(=O)NCCCCCCCCCCCC)C(=O)COc1ccc(Cl)cc1`?
Answer: T/C [11]: 100 % of control; T/C (dose: 200.0 mg/kg/injection, schedule: Q04DX003 (ip), vehicle: other): 100 % of control; T/C (dose: 400.0 mg/kg/injection, schedule: Q04DX003 (ip), vehicle: other): 100 % of control

Question: With `CCCCCCCCCCCCCCCCCCCCCCCCC(O)C(=O)NC(CO)C(O)C(O)CCCCCCCCCCCCCC` (stereo not given) as the compound, how does the T/C [9] read?
Answer: 87 % of control

Question: With `C1=C(c2ccccc2)[P+](c2ccccc2)(c2ccccc2)C=C(c2ccccc2)[P+]1(c1ccccc1)c1ccccc1` as the compound, how does the T/C (dose: 11.0 mg/kg/injection, schedule: Q04DX003 (ip), vehicle: saline) read?
Answer: 115 % of control

Question: And the T/C [12]?
Answer: 123 % of control

Question: What about the T/C (dose: 17.0 mg/kg/injection, schedule: Q04DX003 (ip), vehicle: saline) of the same compound?
Answer: 123 % of control

Question: And the T/C (dose: 37.0 mg/kg/injection, schedule: Q04DX003 (ip), vehicle: saline)?
Answer: 100 % of control

Question: What about the T/C [13] of the same compound?
Answer: 119 % of control

Question: For `c1ccc(Nc2ncc3cnccn23)cc1`, which T/C [12] is on record?
Answer: 95 % of control

Question: And the T/C [1]?
Answer: 105 % of control

Question: And the T/C [13]?
Answer: 92 % of control

Question: What about the T/C [2] of the same compound?
Answer: 103 % of control

Question: And the T/C [3]?
Answer: 97 % of control and 101 % of control

Question: What about the T/C (dose: 300.0 mg/kg/injection, schedule: Q04DX003 (ip), vehicle: saline) of the same compound?
Answer: 115 % of control
